{"source": "patent US8148347B2", "about": "“Inhibition of interaction of PSD93 and PSDS95 with nNOS and NMDA receptors” (The Johns Hopkins University, priority 2000, dated 2012)", "key": {"PSD-95/nNOS [1]": {"tested_on": "PSD-95/nNOS", "assay": "yeast two-hybrid growth in −LTH medium, pGAD424-PSD-95 and pGBT9-nNOS", "format": "cell-based", "source_text": "(§1) We utilized the yeast two-hybrid system to investigate the effects of halothane on protein interactions within the NMDA receptor signaling complex. The PDZ domain of nNOS or the C-terminus of NMDA receptor subunit 2B (NR2B) was fused in frame with the GAL4 DNA-binding domain in a yeast vector, pGBT9. The PDZ domain of PSD95 or PSD-93 was fused in frame with the GAL4 activation domain in another yeast vector, pGAD424. Both yeast vectors were co-transformed into the Y190 yeast strain, which was then grown in the absence or presence of halothane at clinically relevant concentrations. Protein-protein interactions were confirmed by both yeast growth on −Leu/−Trp/−His (−LTH) medium and lacz expression. To confirm the yeast two-hybrid results, the GST fusion protein binding assay was performed. The GST-fusion proteins, consisting of the second PDZ domain of PSD-95 or PSD-93, were expressed in bacterial BL21 cells and purified using glutathione-coupled agarose. After preincubation with or without different concentrations of halothane, GST-PSD-95 or GST-PSD-93 was incubated with membrane proteins from rat hippocampus at room temperature for 1 h. After extensive washing, the bound proteins were eluted by boiling in 1×SDS-PAGE sample buffer and detected by immunoblotting."}, "[2]": {"tested_on": "PSD-93/NMDA receptor subunit 2B (NR2B)", "assay": "yeast two-hybrid growth in −LTH medium, pGAD424-PSD-93 and pGBT9-2B", "format": "cell-based", "source_text": "as §1"}, "PSD-93/nNOS [3]": {"tested_on": "PSD-93/nNOS", "assay": "yeast two-hybrid growth in −LTH medium, pGAD424-PSD-93 and pGBT9-nNOS", "format": "cell-based", "source_text": "as §1"}, "PSD-95/NMDA receptor": {"target": "T1, PSD-95/NMDA receptor (Rattus norvegicus, UniProt P31016)", "T1 construct": "The GST-fusion proteins, consisting of the second PDZ domain of PSD-95 or PSD-93; made in house; host or cells: bacterial BL21 cells (GST fusion); partner from rat hippocampal membranes", "T1 sequence (P31016 160-246 limits assumed)": "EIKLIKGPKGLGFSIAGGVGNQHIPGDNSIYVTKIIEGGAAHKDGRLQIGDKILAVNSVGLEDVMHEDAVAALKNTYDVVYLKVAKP", "assay": "GST fusion protein binding assay, GST-PSD-95 and NMDA receptors", "conditions": "preincubation with different concentrations of halothane", "source_text": "as §1"}, "PSD-95/nNOS [4]": {"target": "T2, PSD-95/nNOS (Rattus norvegicus, UniProt P31016)", "T2 construct": "The GST-fusion proteins, consisting of the second PDZ domain of PSD-95 or PSD-93; made in house; host or cells: bacterial BL21 cells (GST fusion); partner from rat hippocampal membranes", "T2 sequence (P31016 160-246 limits assumed)": "as above", "assay": "GST fusion protein binding assay, GST-PSD-95 and nNOS", "conditions": "preincubation with different concentrations of halothane", "source_text": "as §1"}, "Y190 yeast strain": {"tested_on": "Y190 yeast strain", "assay": "yeast growth in −LT media (cytotoxicity control)", "format": "cell-based", "conditions": "high halothane concentration (3.6%)", "source_text": "Under normal conditions, PSD-95 interacts with nNOS, resulting in good growth of the yeast carrying pGAD424-PSD-95 and pGBT9-nNOS in −LTH medium. […] Rather, the failure of yeast to grow in −LTH media in the presence of halothane must be due to disruption of protein-protein interactions by halothane. […] These findings confirm the yeast two-hybrid results.\nas §1, with “The GST-fusion proteins, consisting of the second PDZ domain of PSD-95 or PSD-93, were expressed in bacterial BL21 cells and purified using glutathione-coupled agarose. After preincubation with or without different concentrations of halothane, GST-PSD-95 or GST-PSD-93 was incubated with membrane proteins from rat hippocampus at room temperature for 1 h.” left out"}, "[5]": {"tested_on": "PSD-95/NMDA receptor subunit 2B (NR2B)", "assay": "yeast two-hybrid growth in −LTH medium, pGAD424-PSD-95 and pGBT9-2B", "format": "cell-based", "source_text": "as §1"}, "PSD-93/NMDA receptor": {"tested_on": "PSD-93/NMDA receptor", "assay": "GST fusion protein binding assay, GST-PSD-93 and NMDA receptors", "set-up": "species or system rat", "conditions": "preincubation with different concentrations of halothane", "source_text": "as §1, with “Protein-protein interactions were confirmed by both yeast growth on −Leu/−Trp/−His (−LTH) medium and lacz expression.” left out"}, "PSD-93/nNOS [6]": {"tested_on": "PSD-93/nNOS", "assay": "GST fusion protein binding assay, GST-PSD-93 and nNOS", "set-up": "species or system rat", "conditions": "preincubation with different concentrations of halothane", "source_text": "as §1"}}, "note": "Entries after “also recorded” stand apart in the source; their conditions may differ.", "data": [{"smiles": "FC(F)(F)C(Cl)Br", "note": "(centres unmarked) [halothane]", "values": [{"measurement": "growth of the yeast in −LTH media", "setting": "PSD-95/nNOS [1]; dose dependence", "result": "dose-dependently inhibited"}, {"measurement": "yeast growth in −LTH media", "setting": "PSD-95/nNOS [1]; high concentration (1.3%)", "result": "completely inhibited yeast growth"}, {"measurement": "growth of yeast clones in −LTH media", "setting": "PSD-95/nNOS [1]; low halothane concentrations (0.4%-0.7%)", "result": "slowed the growth"}, {"measurement": "growth of the yeast in −LTH media", "setting": "[2]", "result": "inhibited by halothane in a similar way"}, {"measurement": "growth of the yeast in −LTH media", "setting": "PSD-93/nNOS [3]", "result": "inhibited by halothane in a similar way"}, {"measurement": "binding of GST-fusion PSD-95 to rat brain NMDA receptors", "setting": "PSD-95/NMDA receptor", "result": "blocks; also recorded: dose-dependently inhibited"}, {"measurement": "binding of GST-fusion PSD-95 to nNOS", "setting": "PSD-95/nNOS [4]", "result": "blocks; also recorded: dose-dependently inhibited"}, {"measurement": "yeast growth in −LT media", "setting": "Y190 yeast strain", "result": "growth did not differ from yeast grown without halothane"}, {"measurement": "growth of the yeast in −LTH media", "setting": "[5]", "result": "A similar phenomenon was observed"}, {"measurement": "binding of GST-fusion PSD-93 to rat brain NMDA receptors", "setting": "PSD-93/NMDA receptor", "result": "blocks; also recorded: dose-dependently inhibited"}, {"measurement": "binding of GST-fusion PSD-93 to nNOS", "setting": "PSD-93/nNOS [6]", "result": "blocks; also recorded: dose-dependently inhibited"}]}]}
